Assay results published in patent US20130203662A1, “Mini-Hepcidin Peptides and Methods of Using Thereof” (priority 2008, published 2013).
pEC50: −log10 of the molar value. Square brackets hold non-standard residues; d marks the D form. Ends that are not written are not given here. Peptide text beside a SMILES is read from it. Bip = N[C@@H](Cc1ccc(-c2ccccc2)cc1)C(=O)O; Oic = O=C(O)[C@@H]1C[C@@H]2CCCC[C@@H]2N1; Dip = N[C@H](C(=O)O)C(c1ccccc1)c1ccccc1; 1Nal = N[C@@H](Cc1cccc2ccccc12)C(=O)O; β3hF = N[C@H](CC(=O)O)Cc1ccccc1; β3hP = O=C(O)C[C@@H]1CCCN1

Biological target: T1, ferroportin fused to green fluorescent protein (ECR293/Fpn-GFP cells) (Mus musculus, UniProt Q9JHI9)
T1 sequence (Q9JHI9 1-570): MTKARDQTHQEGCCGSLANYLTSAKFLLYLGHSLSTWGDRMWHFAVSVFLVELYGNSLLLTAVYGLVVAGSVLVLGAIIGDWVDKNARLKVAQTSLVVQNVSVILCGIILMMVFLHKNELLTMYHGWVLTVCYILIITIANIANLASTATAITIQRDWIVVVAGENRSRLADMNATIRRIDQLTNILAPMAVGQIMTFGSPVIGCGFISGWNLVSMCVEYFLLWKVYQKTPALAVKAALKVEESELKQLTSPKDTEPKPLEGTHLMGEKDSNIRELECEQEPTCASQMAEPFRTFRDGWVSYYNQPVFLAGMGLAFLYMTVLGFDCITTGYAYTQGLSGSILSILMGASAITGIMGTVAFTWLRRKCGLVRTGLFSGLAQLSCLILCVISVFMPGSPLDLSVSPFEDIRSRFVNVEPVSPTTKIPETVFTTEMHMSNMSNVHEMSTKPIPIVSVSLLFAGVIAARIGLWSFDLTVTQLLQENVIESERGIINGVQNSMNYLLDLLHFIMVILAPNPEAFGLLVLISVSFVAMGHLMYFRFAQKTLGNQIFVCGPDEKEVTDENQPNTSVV
Assay: Flow cytometry of ferroportin-GFP internalization and degradation in ECR293/Fpn-GFP cells
Format: cell-based
Conditions: Hep25 variants, FIG. 1, 2A, 2B
Experimental: In vitro activity may be measured by the dose-dependent loss of fluorescence of cells engineered to display ferroportin fused to green fluorescent protein as in Nemeth et al. (2006) Blood 107:328-33. […]
FLOW CYTOMETRY. The activity of peptides of the present invention was measured by flow cytometry as previously described. See Nemeth et al. (2006) Blood 107:328-333, which is herein incorporated by reference. ECR293/Fpn-GFP, a cell line stably transfected with a ponasterone-inducible ferroportin construct tagged at the C-terminus with green fluorescent protein was used. See Nemeth et al. (2004) Science 306:2090-2093, which is herein incorporated by reference. Briefly, the cells were plated on poly-D-lysine coated plates in the presence of 20 μM FAC, with or without 10 μM ponasterone. After 24 hours, ponasterone was washed off, and cells were treated with peptides for 24 hours. Cells were then trypsinized and resuspended at 1×10^6 cells/ml, and the intensity of green fluorescence was analyzed by flow cytometry. […] Cells not induced with ponasterone to express Fpn-GFP were used to establish a gate to exclude background fluorescence. Cells induced with ponasterone, but not treated with any peptides, were used as the positive control. Each peptide was tested over the range of concentrations (0, 0.01, 0.03, 0.1, 0.3, 1, 3 and 10 μM). Each peptide treatment was repeated independently 3 to 6 times.

Molecule	relative hepcidin activity of substitutions in Hep25
F4Y: Hep25 with F4 substituted by tyrosine (DTHYPICIFCCGCCHRSKCGMCCKT)	substantial loss of hepcidin activity
T2A: Hep25 with alanine substitution of residue T2 (DAHFPICIFCCGCCHRSKCGMCCKT)	did not substantially impact hepcidin activity

Same assay, conditions: concentration eliciting 50% of maximal loss of fluorescence generated by reference Hep25; 24 hours

pEC50	Molecule
6.15	CC[C@H](C)[C@H](NC(=O)[C@H](CS)NC(=O)[C@@H](NC(=O)[C@@H]1CCCN1C(=O)[C@H](Cc1ccccc1)NC(=O)[C@H](Cc1c[nH]cn1)NC(=O)[C@@H](NC(=O)[C@@H](N)CC(=O)O)[C@@H](C)O)[C@@H](C)CC)C(=O)N[C@H](CC(=O)N1CCC[C@@H]1C(=O)N1CCC[C@H]1C(=O)N[C@@H](CCCCN)C(N)=O)Cc1ccccc1 [Pr19] (H-DTHFPICI[β3hF][dP]PK-NH2)
6.52	CC[C@H](C)[C@H](NC(=O)[C@H](CS)NC(=O)[C@@H](NC(=O)[C@@H]1CCCN1C(=O)[C@H](Cc1ccccc1)NC(=O)[C@H](Cc1c[nH]cn1)NC(=O)[C@@H](NC(=O)[C@@H](N)CC(=O)O)[C@@H](C)O)[C@@H](C)CC)C(=O)N[C@@H](Cc1ccccc1)C(=O)N1CCC[C@@H]1C(=O)N1CCC[C@H]1CC(=O)N[C@@H](CCCCN)C(N)=O [Pr17]
7.46	CC[C@H](C)[C@H](NC(=O)[C@H](CS)NC(=O)[C@@H](NC(=O)[C@@H]1CCCN1C(=O)[C@@H](NC(=O)[C@H](Cc1c[nH]cn1)NC(=O)[C@@H](NC(=O)[C@@H](N)CC(=O)O)[C@@H](C)O)C(c1ccccc1)c1ccccc1)[C@@H](C)CC)C(=O)N[C@H](C(N)=O)C(c1ccccc1)c1ccccc1 [Pr39] (H-DTH[Dip]PICI[Dip]-NH2)
7.30	CC[C@H](C)[C@H](NC(=O)[C@H](CS)NC(=O)[C@@H](NC(=O)[C@@H]1CCCN1C(=O)[C@H](Cc1ccccc1)NC(=O)[C@H](Cc1c[nH]cn1)NC(=O)[C@@H](NC(=O)[C@@H](N)CC(=O)O)[C@@H](C)O)[C@@H](C)CC)C(=O)N[C@@H](Cc1ccccc1)C(=O)N1CCC[C@H]1CC(=O)N1CCC[C@H]1C(=O)N[C@@H](CCCNC(=N)N)C(N)=O [Pr16]
7.52	CC[C@H](C)[C@H](NC(=O)[C@H](CS)NC(=O)[C@@H](NC(=O)[C@@H]1CCCN1C(=O)[C@@H](NC(=O)[C@H](Cc1c[nH]cn1)NC(=O)[C@@H](NC(=O)[C@@H](N)CC(=O)O)[C@@H](C)O)C(c1ccccc1)c1ccccc1)[C@@H](C)CC)C(=O)N[C@@H](Cc1ccccc1)C(N)=O [F4Dpa] (H-DTH[Dip]PICIF-NH2; N-terminus assumed)
6.22	CC[C@H](C)[C@H](NC(=O)[C@H](CS)NC(=O)[C@@H](NC(=O)[C@@H]1CCCN1C(=O)[C@H](Cc1ccccc1)NC(=O)[C@H](Cc1c[nH]cn1)NC(=O)[C@@H](NC(=O)[C@@H](N)CC(=O)O)[C@@H](C)O)[C@@H](C)CC)C(=O)N[C@H](CC(=O)N1CCC[C@@H]1C(=O)N1CCC[C@H]1CC(=O)N[C@@H](CCCNC(=N)N)C(N)=O)Cc1ccccc1 [Pr22] (H-DTHFPICI[β3hF][dP][β3hP]R-NH2)

Same assay, conditions: concentration eliciting 50% of maximal loss of fluorescence generated by reference Hep25; 24 hours; read-out: EC50 (the source's name)

DC50 [nM]	Molecule
30	CC[C@H](C)[C@H](NC(=O)[C@H](CS)NC(=O)[C@@H](NC(=O)[C@@H]1C[C@@H]2CCCC[C@@H]2N1C(=O)[C@@H](NC(=O)[C@H](Cc1c[nH]cn1)NC(=O)[C@@H](NC(=O)[C@@H](N)CC(=O)O)[C@@H](C)O)C(c1ccccc1)c1ccccc1)[C@@H](C)CC)C(=O)N[C@@H](Cc1ccccc1)C(N)=O [Pr44] (H-DTH[Dip][Oic]ICIF-NH2; N-terminus assumed)
150	CC[C@H](C)[C@H](NC(=O)[C@H](CS)NC(=O)[C@@H](NC(=O)[C@@H]1CCCN1C(=O)[C@H](Cc1ccccc1)NC(=O)[C@H](Cc1c[nH]cn1)NC(=O)[C@@H](NC(=O)[C@@H](N)CC(=O)O)[C@@H](C)O)[C@@H](C)CC)C(=O)N[C@H](CC(N)=O)Cc1ccccc1 [F9bhPhe]
150	CC[C@H](C)[C@H](NC(=O)[C@H](CS)NC(=O)[C@@H](NC(=O)[C@@H]1CCCN1C(=O)[C@H](Cc1ccc(-c2ccccc2)cc1)NC(=O)[C@H](Cc1c[nH]cn1)NC(=O)[C@@H](NC(=O)[C@@H](N)CC(=O)O)[C@@H](C)O)[C@@H](C)CC)C(=O)N[C@@H](Cc1ccccc1)C(N)=O [F4Bip] (H-DTH[Bip]PICIF-NH2; N-terminus assumed)
3000	CC[C@H](C)[C@H](NC(=O)[C@@H]1CCCN1C(=O)[C@H](Cc1ccccc1)NC(=O)[C@H](Cc1c[nH]cn1)NC(=O)[C@@H](NC(=O)[C@@H](N)CC(=O)O)[C@@H](C)O)C(=O)N[C@@H](C(=O)N[C@H](C(=O)N[C@@H](Cc1ccccc1)C(N)=O)[C@@H](C)CC)C(C)(C)S [(D)Pen]
> 3000	DTHAPICIF-NH2 [Hep9F4A]
200	CC[C@H](C)[C@H](NC(=O)[C@H](CS)NC(=O)[C@@H](NC(=O)[C@@H]1CCCN1C(=O)[C@H](Cc1ccccc1)NC(=O)[C@H](Cc1c[nH]cn1)NC(=O)[C@@H](NC(=O)[C@@H](N)CC(=O)O)[C@@H](C)O)[C@@H](C)CC)C(=O)N[C@H](CC(=O)N1CCC[C@@H]1C(=O)N1CCC[C@H]1C(=O)N[C@@H](CCCNC(=N)N)C(N)=O)Cc1ccccc1 [Pr20] (H-DTHFPICI[β3hF][dP]PR-NH2)
500	CC[C@H](C)[C@H](NC(=O)[C@H](CS)NC(=O)[C@@H](NC(=O)[C@@H]1CCCN1C(=O)[C@H](Cc1ccccc1)NC(=O)[C@H](Cc1c[nH]cn1)NC(=O)[C@@H](NC(=O)[C@@H](N)CC(=O)O)[C@@H](C)O)[C@@H](C)CC)C(=O)N[C@H](CC(=O)N1CCC[C@@H]1C(=O)N1CCC[C@H]1CC(=O)N[C@@H](CCCCN)C(N)=O)Cc1ccccc1 [Pr21] (H-DTHFPICI[β3hF][dP][β3hP]K-NH2)
150	CC[C@H](C)[C@H](NC(=O)[C@H](CS)NC(=O)[C@@H](NC(=O)[C@@H]1C[C@@H]2CCCC[C@@H]2N1C(=O)[C@@H](NC(=O)[C@H](Cc1c[nH]cn1)NC(=O)[C@@H](NC(=O)[C@@H](N)CC(=O)O)[C@@H](C)O)C(c1ccccc1)c1ccccc1)[C@@H](C)CC)C(=O)N[C@H](C(N)=O)C(c1ccccc1)c1ccccc1 [Pr45] (H-DTH[Dip][Oic]ICI[Dip]-NH2; N-terminus assumed)
10	CC[C@H](C)[C@@H]1NC(=O)[C@@H](NC(=O)[C@@H](NC(=O)[C@@H]2CCCN2C(=O)[C@H](Cc2ccccc2)NC(=O)[C@H](Cc2c[nH]cn2)NC(=O)[C@@H](NC(=O)[C@@H](N)CC(=O)O)[C@@H](C)O)[C@@H](C)CC)CSSC[C@@H](C(=O)N[C@@H](CCCCN)C(=O)N[C@H](C(=O)O)[C@@H](C)O)NC(=O)[C@@H]2CSSC[C@@H]3NC(=O)[C@@H]4CSSC[C@H](NC(=O)[C@H](Cc5ccccc5)NC1=O)C(=O)N[C@@H](CSSC[C@H](NC(=O)[C@H](CCCCN)NC(=O)[C@H](CO)NC(=O)[C@H](CCCNC(=N)N)NC(=O)[C@H](Cc1c[nH]cn1)NC3=O)C(=O)NCC(=O)N[C@@H](CCSC)C(=O)N2)C(=O)NCC(=O)N4 [Hep25, reference compound]
100	CC[C@H](C)[C@H](NC(=O)[C@H](CS)NC(=O)[C@@H](NC(=O)[C@@H]1CCCN1C(=O)[C@H](Cc1ccccc1)NC(=O)[C@H](Cc1c[nH]cn1)NC(=O)[C@@H](NC(=O)[C@@H](N)CC(=O)O)[C@@H](C)O)[C@@H](C)CC)C(=O)N[C@@H](Cc1ccccc1)C(=O)N1CCC[C@@H]1C(=O)N1CCC[C@H]1C(=O)N[C@@H](CCCCN)C(N)=O [Pr13]
200	CC[C@H](C)[C@H](NC(=O)[C@H](CS)NC(=O)[C@@H](NC(=O)[C@@H]1CCCN1C(=O)[C@H](Cc1ccccc1)NC(=O)[C@H](Cc1c[nH]cn1)NC(=O)[C@@H](NC(=O)[C@@H](N)CC(=O)O)[C@@H](C)O)[C@@H](C)CC)C(=O)N[C@@H](Cc1cccc2ccccc12)C(N)=O [F91Nal] (H-DTHFPICI[1Nal]-NH2; N-terminus assumed)
700	CC[C@H](C)[C@H](NC(=O)[C@H](CS)NC(=O)[C@@H](NC(=O)[C@@H]1CCCN1C(=O)C[C@H](Cc1ccccc1)NC(=O)[C@H](Cc1c[nH]cn1)NC(=O)[C@@H](NC(=O)[C@@H](N)CC(=O)O)[C@@H](C)O)[C@@H](C)CC)C(=O)N[C@@H](Cc1ccccc1)C(N)=O [F4bhPhe]
> 10000	DTHFPIAIF-NH2 [Hep9-C7A]
2000	DTHFPICI-NH2 [Hep8]

Molecule	DC50 [nM]
DTHFPIC-NH2 [Hep7]	> 10000
HFPICIF-NH2 [Hep7ΔDT]	700
HFPICI-NH2 [Hep6]	1000
HFPIC-NH2 [Hep5]	> 10000
